In one experiment the test system is IL-23 release. In words: IL-23 release from human dendritic cells. It counts as cell-based. Conditions: Dendritic cell, at 10 μM, read-out: inhibition of IL-23 release (plateau). The protocol: PBMCs were purified using Histopaque (Sigma-Aldrich, St. Louis, MO, USA). CD14^+ cells were positively selected in a magnetic field (magnetic-activated cell sorting [MACS]; Miltenyi Biotec, Bergisch Gladbach, Germany). Purified CD14^+ cells were subsequently cultured for 7 days in differentiation medium (RPMI 1640 + 10% FBS, granulocyte-macrophage colony-stimulating factor 50 ng/ml and IL-4 100 ng/ml) and then stimulated with LPS (10 ng/ml), R848 2.5 μg/ml and PGE2 10 nM for 24 h in the presence of CR6086 (0.01–30 μM) or naproxen (1–30 μM). IL-23 release was measured by enzyme-linked immunosorbent assay (ELISA) (R&D Systems, Minneapolis, MN, USA).

Experiment [1] relates to arthritic mice (collagen-induced arthritis model). In words: FACS analysis of cell populations in the joint, CIA mice. It is filed as in vivo, mouse. Particulars: CR6086 60 mg/kg, naproxen 60 mg/kg, etanercept 10 mg/kg, mean ± SEM. The protocol:
(§1) In a first study, mice were randomised into the following treatment groups: vehicle, 30 mg/kg CR6086, 60 mg/kg CR6086, 60 mg/kg naproxen and 10 mg/kg etanercept. Animals received the test drugs for 10 days. CR6086 and naproxen were administered orally once daily, whereas etanercept was administered intraperitoneally every other day. Animals treated with vehicle, 60 mg/kg CR6086, naproxen and etanercept were additionally analysed for the proportion of populations of Th17 cells, Th1 cells, regulatory T cells, B cells, macrophages, neutrophils and dendritic cells by fluorescence-activated cell sorting (FACS) after collection of blood, draining lymph nodes and joints.
(A flow cytometer gives signals particle by particle.)

Experiment [2] shares this test system. In words: CIA in mice, first study: clinical score and paw swelling. Conditions: 10 days; CR6086 30 and 60 mg/kg, naproxen 60 mg/kg oral once daily; etanercept 10 mg/kg i.p. every other day. It counts as in vivo, mouse. How it is done: Male DBA/1 mice were immunised by intradermal injection at the base of the tail with an emulsion of 200 μg of bCII in CFA containing 3 mg/ml Mycobacterium tuberculosis. Non-immunised mice served as the negative control of disease. Animals were monitored by visual inspection for appearance of peripheral oedema. […] Upon onset, animals were recruited and randomised. Recruitment was given a cut-off at day 40. Upon recruitment, arthritis clinical score was assigned, and oedema was measured via caliper.
as §1
Oedema measurement was performed every day before treatment, and all animals were blindly scored for clinical signs of arthritis as follows: 0 = normal; 1 = slight swelling and/or erythema; 2 = pronounced oedematous swelling; and 3 = ankyloses and severe swelling. A score of 0.5 was given to swollen toe/toes or when inflammation was localised to one part of the foot. Each limb was measured separately, with a final score based on the sum of the scores from all four paws.

The subject of the next experiment is IL-17 release. In words: IL-17 release from human Th17 cells. It is filed as cell-based. Conditions: 1–10 μM. How it is done:
PBMCs were purified using Histopaque. CD4^+CD45^+ naive T cells were indirectly selected in a magnetic field (MACS; Miltenyi Biotec). Purified CD4^+ cells were subsequently cultured for 7 days in differentiation medium (RPMI 1640 + FBS 10%, IL-6 30 ng/ml, transforming growth factor [TGF]-β 2.25 ng/ml, IL-23 30 ng/ml, IL-1β 20 ng/ml, anti-interferon (IFN)-γ 1 ng/ml and anti-IL-4 2.5 ng/ml). Th17 cell expansion was stimulated by addition of anti-CD3/[…]anti-CD28 beads to the medium with a cell-to-beads ratio of 1:2. Th17 cells were stimulated with IL-6 30 ng/ml, TGF-β 2.25 ng/ml, IL-23 30 ng/ml, IL-1β 20 ng/ml and PGE2 10 nM for 48 h in the presence of CR6086 (0.03–10 μM) or naproxen (1–10 μM). IL-17 release was measured by ELISA (Abcam, Cambridge, UK).

Experiment [3] relates to arthritic mice (collagen-induced arthritis model). Briefly: CIA in mice, second study: serum cytokines and signal limb histology. It is filed as in vivo, mouse. Conditions: 60 mg/kg oral daily, 10 days; mean ± SEM.
The test system of the next experiment is mouse arthritis models. Also on record: method as in FDA pharmacological review. Particulars: ref FDA pharmacological review; cited from earlier work.
A further experiment concerns rat arthritis models. On the set-up: method as in FDA pharmacological review. Conditions: ref FDA pharmacological review; cited from earlier work.

Structures are written as SMILES.

As to `COc1ccc2cc([C@H](C)C(=O)O)ccc2c1` [Naproxen, naproxen, reference compound], the inhibition at 10 µM in the experiment on IL-23 release is ~50%. Also, in experiment [1], the “B cells, Percentage of total cells” value was 5.77 ± 1.16%; the “Dendritic cells, Percentage of total cells” value was 1.96 ± 0.48%; the “Macrophages, Percentage of total cells” value was found to be 16.31 ± 4.44%; the “Neutrophils, Percentage of total cells” value is listed as 16.47 ± 4.48%. In addition, in experiment [1], the “Th1, Percentage of total cells” value was determined as 0.35 ± 0.07%; the “Th17, Percentage of total cells” value amounted to 0.21 ± 0.08%; the “Treg, Percentage of total cells” value turned out to be 0.63 ± 0.22%. Moreover, the “effect on disease parameters (visual clinical score, paw swelling) vs vehicle” value in experiment [2] is “ineffective”. In addition, the “effect on IL-17 release” value in the experiment on IL-17 release is “inactive”. In experiment [3], this compound had an IFNγ serum concentration of 3.48 ± 1.10 pg/mL, an IL-10 serum concentration of 16.21 ± 2.23 pg/mL, an IL-17 serum concentration of 2.58 ± 0.43 pg/mL and a TNFα serum concentration of 43.01 ± 4.55 pg/mL.
Regarding `C[C@@H]1CCN(C(=O)CC#N)C[C@@H]1N(C)c1ncnc2[nH]ccc12` [tofacitinib], in the experiment on mouse arthritis models, the “potency in mouse arthritis models” value is listed as 50 mg/kg. In the experiment with rat arthritis models, the “potency in rat arthritis models” value is reported as 6.2 mg/kg.

For orientation: inhibition means the relative decrease from the control value, in per cent.
